# Reference: patent publication US10577373B2, “TYK2 inhibitors and uses thereof” (Nimbus Lakshmi, Inc., priority 2017, dated 2020)
# Read-outs that look alike come from different tables or passages of the source.
# Legend:
# [1] = tested on: IL-12 induced STAT4 phophorylation mediated by Tyk2/JAK2 (heterodimeric complex); assay: IL-12 Induced pSTAT4 in Human PBMC; format: cell-based; conditions: 1.7 ng/mL IL-12
# Excerpt: The IL-12 Induced pSTAT4 assay evaluates the inhibition of IL-12 induced STAT4 phophorylation mediated by Tyk2/JAK2 (heterodimeric complex).
# [2] = tested on: GM-CSF induced STAT5 phosphorylation mediated by the JAK2/JAK2 homdimeric complex; assay: GM-CSF Induced pSTAT5 in Human PBMC
# Excerpt: Human PBMC are isolated from buffy coat and are stored frozen for assays as needed.
# [3] = Homo sapiens, PBMC, 20 min, read-out: PBMC_GMCSF_pSTAT5 IC50, human PBMC, GM-CSF 5 ng/mL for 20 minutes, pSTAT5
# [4] = read-out: PBMC_GMCSF_pSTAT5 IC50, human PBMC, GM-CSF 5 ng/mL for 20 minutes, pSTAT5
Structure (SMILES),IC50 [1] [nM],"IC50 [2, 3] [nM]","IC50 [2, 4] [nM]","IC50 ([2]; Homo sapiens, PBMC, 20 min, read-out: PBMC_GMCSF_pSTAT5 IC50) [nM]"
"CNc1cc(Nc2cccn(-c3ccn(C4CC4)n3)c2=O)nc2c(C(=O)N[C@@H]3C[C@@H]3F)cnn12 (stereo in doubt) [I-106, 5-((1-(1-cyclopropyl-1H-pyrazol-3-yl)-2-oxo-1,2-dihydropyridin-3-yl)amino)-N-((1R,2S)-2-fluorocyclopropyl)-7-(methylamino)pyrazolo[1,5-a]pyrimidine-3-carboxamide]",< 100,> 12500,–,–
"CNc1cc(Nc2cc(C)cc(C)c2)nc2c(C(N)=O)cnn12 [I-2, 5-((3,5-dimethylphenyl)amino)-7-(methylamino)pyrazolo[1,5-a]pyrimidine-3-carboxamide]",< 100,> 50000,–,–
CNc1cc(Nc2cc(F)ccc2F)nc2c(C(=O)NC3CC3)cnn12 [I-3],< 100,> 12500,–,–
CNc1cc(Nc2cccnc2OC)nc2c(C(=O)NC3CCC3)cnn12 [I-4],< 100,> 12500,–,–
CNc1cc(Nc2cc(F)cc(F)c2F)nc2c(C(=O)NC3CC3)cnn12 [I-5],< 100,> 50000,–,–
CNc1cc(Nc2cc(C)cc(F)c2)nc2c(C(=O)NC3CC3)cnn12 [I-6],< 100,> 50000,–,–
CNc1cc(Nc2cccc(N3CCCC3=O)n2)nc2c(C(=O)NC3CC3)cnn12 [I-7],< 100,> 12500,–,–
CNc1cc(Nc2cccc(C)c2Cl)nc2c(C(N)=O)cnn12 [I-14],< 100,> 50000,–,–
CNc1cc(Nc2cccc(-c3nccs3)c2Cl)nc2c(C(N)=O)cnn12 [I-16],< 100,> 2500,–,–
CNc1cc(Nc2cccc(-c3cnn(C)c3)c2Cl)nc2c(C(N)=O)cnn12 [I-17],< 100,> 2500,–,–
CNc1cc(Nc2cc(C)cn(-c3cnn(C)c3)c2=O)nc2c(C(N)=O)cnn12 [I-31],100 to 500,> 300,–,–
CCn1cc(Cl)cc(Nc2cc(NC)n3ncc(C(N)=O)c3n2)c1=O [I-35],< 100,> 300,–,–
"CNc1cc(-c2c[nH]c3c(C)cc(C)cc23)nc2c(C(N)=O)cnn12 [I-36, 5-(5,7-dimethyl-1H-indol-3-yl)-7-(methylamino)pyrazolo[1,5-a]pyrimidine-3-carboxamide]",< 100,> 12500,–,–
CNc1cc(Nc2cccc(N3CCCC3=O)n2)nc2c(C(N)=O)cnn12 [I-47],< 100,> 300,–,–
CNc1cc(Nc2cccnc2OC(C)C)nc2c(C(N)=O)cnn12 [I-72],100 to 500,> 12500,–,–
CNc1cc(Nc2cccc(N3CCCC3=O)n2)nc2c(C(=O)NC3CCC3)cnn12 [I-94],< 100,> 50000,–,–
CNc1cc(Nc2cccn(-c3cnc(C(C)(C)O)cn3)c2=O)nc2c(C(=O)NC3CCC3)cnn12 [I-95],< 100,–,–,> 50000
CNc1cc(Nc2cccc(N3CCOC3=O)n2)nc2c(C(=O)NC3CCC3)cnn12 [I-105],< 100,> 12500,–,–
CNc1cc(Nc2cccnc2OC)nc2c(C(=O)N[C@H]3C[C@H]3F)cnn12 [I-110],< 100,> 50000,–,–
CNc1cc(Nc2cccn(-c3ccc(F)cn3)c2=O)nc2c(C(=O)N[C@H]3C[C@H]3F)cnn12 [I-115],< 100,> 12500,–,–
CCOc1ccc(-n2cccc(Nc3cc(NC)n4ncc(C(=O)N[C@H]5C[C@H]5F)c4n3)c2=O)nn1 [I-117],< 100,> 2500,–,–
CNc1cc(Nc2cccn(-c3ccc(C(=O)N4CCCC4)cn3)c2=O)nc2c(C(=O)NC3CCC3)cnn12 [I-121],100 to 500,> 12500,–,–

# Continued, in another order:
IC50 [1] [nM],"IC50 [2, 3] [nM]","IC50 [2, 4] [nM]",Structure (SMILES),"IC50 ([2]; Homo sapiens, PBMC, 20 min, read-out: PBMC_GMCSF_pSTAT5 IC50) [nM]"
< 100,> 50000,–,CNc1cc(Nc2cccn(C3CCCOC3)c2=O)nc2c(C(=O)NC3CCC3)cnn12 (racemic) [I-324],–
100 to 500,> 50000,–,"CNc1cc(Nc2cccc3ocnc23)nc2c(C(=O)N[C@@H]3CC[C@H]3O)cnn12 (racemic) [I-756, 5-(benzo[d]oxazol-4-ylamino)-N-(2-hydroxycyclobutyl)-7-(methylamino) pyrazolo[1,5-a]pyrimidine-3-carboxamide]",–
< 100,> 12500,–,"CNc1cc(Nc2cccn(-c3ccnc(C)n3)c2=O)nc2c(C(=O)N[C@@H]3C[C@@H]3F)cnn12 (stereo in doubt) [I-124, N-((1R,2S)-2-fluorocyclopropyl)-7-(methylamino)-5-((1-(2-methylpyrimidin-4-yl)-2-oxo-1,2-dihydropyridin-3-yl)amino)pyrazolo[1,5-a]pyrimidine-3-carboxamide]",–
< 100,> 50000,–,"CNc1cc(-c2cn(C(C)C)c3ncccc23)nc2c(C(=O)N[C@@H]3C[C@@H]3F)cnn12 (stereo in doubt) [I-225, N-((1R,2S)-2-fluorocyclopropyl)-5-(1-isopropyl-1H-pyrrolo[2,3-b]pyridin-3-yl)-7-(methylamino)pyrazolo[1,5-a]pyrimidine-3-carboxamide]",–
< 100,–,> 50000,"CNc1cc(Nc2cccnc2OC)nc2c(C(=O)N[C@@H]3CC[C@H]3O)cnn12 (stereo in doubt) [I-363, N-((1R,2R)-2-hydroxycyclobutyl)-5-((2-methoxypyridin-3-yl)amino)-7-(methylamino)pyrazolo[1,5-a]pyrimidine-3-carboxamide]",–
< 100,> 50000,–,"CNc1cc(Nc2cccnc2OC2CC2)nc2c(C(=O)NC3CCC3O)cnn12 (stereo in doubt) [I-366, 5-((2-cyclopropoxypyridin-3-yl)amino)-N-((1R,2R)-2-hydroxycyclobutyl)-7-(methylamino)pyrazolo[1,5-a]pyrimidine-3-carboxamide]",–
< 100,> 50000,–,"[2H]C([2H])([2H])Nc1cc(Nc2cccnc2OC)nc2c(C(=O)N[C@@H]3C[C@@H]3F)cnn12 (stereo in doubt) [I-374, N-((1R,2S)-2-fluorocyclopropyl)-5-((2-methoxypyridin-3-yl)amino)-7-((methyl-d3)amino)pyrazolo[1,5-a]pyrimidine-3-carboxamide]",–
< 100,> 50000,–,"[2H]C([2H])([2H])Nc1cc(Nc2cccnc2OC2CC2)nc2c(C(=O)N[C@@H]3C[C@@H]3F)cnn12 (stereo in doubt) [I-375, 5-((2-cyclopropoxypyridin-3-yl)amino)-N-((1R,2S)-2-fluorocyclopropyl)-7-((methyl-d3)amino)pyrazolo[1,5-a]pyrimidine-3-carboxamide]",–
100 to 500,> 50000,–,"COc1ncccc1Nc1cc(NCCCN2CCOCC2)n2ncc(C(=O)N[C@@H]3C[C@@H]3F)c2n1 (stereo in doubt) [I-377, N-((1R,2S)-2-fluorocyclopropyl)-5-((2-methoxypyridin-3-yl)amino)-7-((3-morpholinopropyl)amino)pyrazolo[1,5-a]pyrimidine-3-carboxamide]",–
< 100,–,> 50000,"[2H]C([2H])([2H])Oc1ncccc1Nc1cc(NC)n2ncc(C(=O)N[C@@H]3CC[C@@H]3O)c2n1 (stereo in doubt) [I-391, N-(2-hydroxycyclobutyl)-5-((2-(methoxy-d3)pyridin-3-yl)amino)-7-(methylamino)pyrazolo[1,5-a]pyrimidine-3-carboxamide]",–
< 100,–,> 12500,"[2H]C([2H])([2H])Oc1ncccc1Nc1cc(NC)n2ncc(C(=O)N[C@H]3CC[C@H]3O)c2n1 (stereo in doubt) [I-399, N-((1 S,2R)-2-hydroxycyclobutyl)-5-((2-(methoxy-d3)pyridin-3-yl)amino)-7-(methylamino) pyrazolo[1,5-a]pyrimidine-3-carboxamide]",–
< 100,–,> 50000,"CNc1cc(-c2cn(C(C)C)c3ncccc23)nc2c(C(=O)N[C@@H]3CC[C@H]3O)cnn12 (stereo in doubt) [I-586, N-((1R,2R)-2-hydroxycyclobutyl)-5-(1-isopropyl-1H-pyrrolo[2,3-b]pyridin-3-yl)-7-(methylamino)pyrazolo[1,5-a]pyrimidine-3-carboxamide]",–
< 100,> 50000,–,"CNc1cc(Nc2cccn(-c3nc(C)co3)c2=O)nc2c(C(=O)N[C@@H]3CC[C@H]3O)cnn12 (stereo in doubt) [I-658, N-((1R,2R)-2-hydroxycyclobutyl)-7-(methylamino)-5-((1-(4-methyloxazol-2-yl)-2-oxo-1,2-dihydropyridin-3-yl)amino)pyrazolo[1,5-a]pyrimidine-3-carboxamide]",–
< 100,> 2500,–,"CNc1cc(Nc2cccn(-c3ncc(C)s3)c2=O)nc2c(C(=O)N[C@H]3CC[C@@H]3O)cnn12 (stereo in doubt) [I-676, N-(2-hydroxycyclobutyl)-7-(methylamino)-5-((1-(5-methylthiazol-2-yl)-2-oxo-1,2-dihydropyridin-3-yl)amino)pyrazolo[1,5-a]pyrimidine-3-carboxamide]",–
< 100,–,> 2500,"CNc1cc(Nc2cccn(-c3ccccn3)c2=O)nc2c(C(=O)N[C@@H]3CC[C@H]3OC)cnn12 (stereo in doubt) [I-816, N-(2-methoxycyclobutyl)-7-(methylamino)-5-((2-oxo-2H-[1,2′-bipyridin]-3-yl)amino)pyrazolo[1,5-a]pyrimidine-3-carboxamide]",–
< 100,> 2500,–,CNc1cc(Nc2cccn(-c3cnc(C(=O)N(C)C)cn3)c2=O)nc2c(C(=O)NC3CCC3)cnn12 [I-122],–
< 100,–,–,CNc1cc(-c2cn(CCCO)c3ncccc23)nc2c(C(=O)N[C@H]3CC[C@@H]3OC)cnn12 [I-1388],–
< 100,–,–,CNc1cc(Nc2cccn(C3CC(F)(F)C3)c2=O)nc2c(C(=O)N[C@H]3CC[C@@H]3OC)cnn12 [I-1389],–
< 100,–,–,CNc1cc(Nc2cccn([C@H]3CCC[C@H](O)C3)c2=O)nc2c(C(=O)N[C@@H]3CC[C@H]3OC)cnn12 [I-1395],–
< 100,–,–,CNc1cc(Nc2cccn([C@@H]3CC[C@@H]3O)c2=O)nc2c(C(=O)N[C@H]3CC[C@@H]3OC)cnn12 [I-1411],–
